Test results from ChEMBL document CHEMBL1201862, “PubChem BioAssay data set” (2004).
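Tested at 5 concentrations; 48 h exposure; 96-well plates; endpoints linearly interpolated, else capped at highest concentration. GI50 = concentration required for 50% inhibition of growth.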 Calls of active or inactive are those of the source. No stated cut-off is given here; in the data, active = GI50 up to about 1.1 µM and inactive = higher.

How the values were obtained:
Assay in all cases: growth of human tumour cells (NCI), 48 h
M14 = test system: M14
NCI-H23 = test system: NCI-H23
SF-539 = test system: SF-539
MDA-MB-231 = test system: MDA-MB-231
HOP-92 = test system: HOP-92
RPMI-8226 = test system: RPMI-8226
HT-29 = test system: HT-29
BT-549 = test system: BT-549
EKVX = test system: EKVX
NCI-H460 = test system: NCI-H460
786-0 = test system: 786-0
MDA-N = test system: MDA-N
UACC-62 = test system: UACC-62
RXF 393 = test system: RXF 393
HOP-62 = test system: HOP-62
SW-620 = test system: SW-620
SK-OV-3 = test system: SK-OV-3
NCI-H522 = test system: NCI-H522
SK-MEL-28 = test system: SK-MEL-28
A549 = test system: A549
PC-3 = test system: PC-3
MDA-MB-435 = test system: MDA-MB-435
SNB-75 = test system: SNB-75
OVCAR-4 = test system: OVCAR-4
HCC 2998 = test system: HCC 2998
SNB-19 = test system: SNB-19
ACHN = test system: ACHN
SF-295 = test system: SF-295
CCRF-CEM = test system: CCRF-CEM
UO-31 = test system: UO-31
Hs-578T = test system: Hs-578T
HCT-15 = test system: HCT-15
A498 = test system: A498
OVCAR-5 = test system: OVCAR-5
SN12C = test system: SN12C
DU-145 = test system: DU-145
IGROV-1 = test system: IGROV-1
OVCAR-3 = test system: OVCAR-3
KM12 = test system: KM12
K562 = test system: K562
NCI/ADR-RES = test system: NCI/ADR-RES
MOLT-4 = test system: MOLT-4
NCI-H226 = test system: NCI-H226
TK-10 = test system: TK-10
SR = test system: SR
SK-MEL-5 = test system: SK-MEL-5
COLO 205 = test system: COLO 205
Malme-3M = test system: Malme-3M
OVCAR-8 = test system: OVCAR-8
HCT-116 = test system: HCT-116
U-251 = test system: U-251
CAKI-1 = test system: CAKI-1
SF-268 = test system: SF-268
UACC-257 = test system: UACC-257
SK-MEL-2 = test system: SK-MEL-2
MCF7 = test system: MCF7
T47D = test system: T47D
LOX IMVI = test system: LOX IMVI

N#Cc1c(-c2ccccc2)cc(Nc2ccc(Cl)cc2)n2c1nc1ccccc12
GI50 (M14): 4.23 µM (inactive) | GI50 (NCI-H23): 2.64 µM (inactive) | GI50 (SF-539): 4.39 µM (inactive) | GI50 (MDA-MB-231): 3.27 µM (inactive) | GI50 (HOP-92): 0.397 µM (active) | GI50 (RPMI-8226): 1.22 µM (inactive) | GI50 (HT-29): 2.14 µM (inactive) | GI50 (BT-549): 4.59 µM (inactive) | GI50 (EKVX): 1.52 µM (inactive) | GI50 (NCI-H460): 1.67 µM (inactive) | GI50 (786-0): 2.62 µM (inactive) | GI50 (MDA-N): 2.42 µM (inactive) | GI50 (UACC-62): 0.975 µM (active) | GI50 (RXF 393): 4.35 µM (inactive) | GI50 (HOP-62): 3.67 µM (inactive) | GI50 (SW-620): 4.84 µM (inactive) | GI50 (SK-OV-3): 2.72 µM (inactive) | GI50 (NCI-H522): 1.91 µM (inactive) | GI50 (SK-MEL-28): > 55 µM (inactive) | GI50 (A549): 1.71 µM (inactive) | GI50 (PC-3): 2.56 µM (inactive) | GI50 (MDA-MB-435): 2.99 µM (inactive) | GI50 (SNB-75): 5.47 µM (inactive) | GI50 (OVCAR-4): 3.23 µM (inactive) | GI50 (HCC 2998): 3.78 µM (inactive) | GI50 (SNB-19): 2.93 µM (inactive) | GI50 (ACHN): 3.03 µM (inactive) | GI50 (SF-295): 3.4 µM (inactive) | GI50 (CCRF-CEM): 4.66 µM (inactive) | GI50 (UO-31): 2.49 µM (inactive) | GI50 (Hs-578T): 1.59 µM (inactive) | GI50 (HCT-15): 3.37 µM | GI50 (A498): 3.71 µM (inactive) | GI50 (OVCAR-5): 3.9 µM (inactive) | GI50 (SN12C): 2.28 µM (inactive) | GI50 (DU-145): 3.45 µM (inactive) | GI50 (IGROV-1): 1.36 µM (inactive) | GI50 (OVCAR-3): 1.85 µM (inactive) | GI50 (KM12): 2.94 µM (inactive) | GI50 (K562): 1.49 µM (inactive) | GI50 (NCI/ADR-RES): 2.44 µM (inactive) | GI50 (MOLT-4): 2.34 µM (inactive) | GI50 (NCI-H226): 4.45 µM (inactive) | GI50 (TK-10): 4.45 µM (inactive) | GI50 (SR): 2.73 µM (inactive) | GI50 (SK-MEL-5): 1.46 µM (inactive) | GI50 (COLO 205): 1.74 µM (inactive) | GI50 (Malme-3M): 5.16 µM (inactive) | GI50 (OVCAR-8): 2.96 µM (inactive) | GI50 (HCT-116): 1.96 µM (inactive) | GI50 (U-251): 2.49 µM (inactive) | GI50 (CAKI-1): 3.59 µM (inactive) | GI50 (SF-268): 3.71 µM (inactive) | GI50 (UACC-257): 1.91 µM (inactive) | GI50 (SK-MEL-2): 2.99 µM (inactive) | GI50 (MCF7): 3.48 µM (inactive) | GI50 (T47D): 2.71 µM (inactive) | GI50 (LOX IMVI): 3.75 µM (inactive)

c1ccc2c(c1)CCc1c-2n(CCN2CCOCC2)c2ccccc12
GI50 (M14): 44 µM (inactive) | GI50 (NCI-H23): > 100 µM (inactive) | GI50 (SF-539): 37.9 µM (inactive) | GI50 (MDA-MB-231): > 100 µM (inactive) | GI50 (HOP-92): 17.8 µM (inactive) | GI50 (RPMI-8226): 35.2 µM (inactive) | GI50 (HT-29): 13.2 µM (inactive) | GI50 (BT-549): > 100 µM (inactive) | GI50 (EKVX): > 100 µM (inactive) | GI50 (NCI-H460): 26.5 µM (inactive) | GI50 (786-0): > 100 µM (inactive) | GI50 (MDA-N): > 100 µM (inactive) | GI50 (UACC-62): > 100 µM (inactive) | GI50 (HOP-62): 68.4 µM (inactive) | GI50 (SW-620): > 100 µM (inactive) | GI50 (SK-OV-3): 26 µM (inactive) | GI50 (NCI-H522): 13.3 µM (inactive) | GI50 (SK-MEL-28): 34.6 µM (inactive) | GI50 (A549): > 100 µM (inactive) | GI50 (PC-3): 19.1 µM (inactive) | GI50 (MDA-MB-435): > 100 µM (inactive) | GI50 (OVCAR-4): > 100 µM (inactive) | GI50 (HCC 2998): 14.3 µM (inactive) | GI50 (SNB-19): > 100 µM (inactive) | GI50 (ACHN): > 100 µM (inactive) | GI50 (SF-295): 28.3 µM (inactive) | GI50 (CCRF-CEM): 21.2 µM (inactive) | GI50 (UO-31): > 100 µM (inactive) | GI50 (Hs-578T): 12.8 µM (inactive) | GI50 (HCT-15): > 100 µM | GI50 (OVCAR-5): > 100 µM (inactive) | GI50 (SN12C): > 100 µM (inactive) | GI50 (DU-145): > 100 µM (inactive) | GI50 (IGROV-1): 11.7 µM (inactive) | GI50 (OVCAR-3): > 100 µM (inactive) | GI50 (KM12): 13.5 µM (inactive) | GI50 (K562): 2.14 µM (inactive) | GI50 (NCI/ADR-RES): > 100 µM (inactive) | GI50 (MOLT-4): 29.9 µM (inactive) | GI50 (NCI-H226): 52.6 µM (inactive) | GI50 (TK-10): > 100 µM (inactive) | GI50 (SR): 15 µM (inactive) | GI50 (SK-MEL-5): 18.8 µM (inactive) | GI50 (COLO 205): 37.4 µM (inactive) | GI50 (Malme-3M): 13.6 µM (inactive) | GI50 (OVCAR-8): > 100 µM (inactive) | GI50 (HCT-116): > 100 µM (inactive) | GI50 (U-251): > 100 µM (inactive) | GI50 (CAKI-1): 22.1 µM (inactive) | GI50 (SF-268): > 100 µM (inactive) | GI50 (UACC-257): 32.9 µM (inactive) | GI50 (SK-MEL-2): 11.8 µM (inactive) | GI50 (MCF7): > 100 µM (inactive) | GI50 (T47D): > 100 µM (inactive) | GI50 (LOX IMVI): > 100 µM (inactive)
